# Assay results as given in PubChem BioAssay (NCI).
# “And” between values parts separate entries of the source, which are not always exact repeats. Equal values may be shown once.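 Method: 48-hour compound exposure of cells in 96-well plates, five concentrations, linear interpolation of endpoints. Here, GI50 denotes the concentration required for 50% inhibition of growth. TGI is the concentration that stops growth completely.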
# Key:
# Test in all cases: growth of human tumour cells (NCI), 48 h
# [1] = system: COLO 205 colon
# [2] = system: HT29 colon
# [3] = system: NCI-H226 lung
# [4] = system: RPMI-8226 leukemia
# [5] = system: RXF 393 renal
# [6] = system: SF-295 CNS
# [7] = system: SK-OV-3 ovarian
# [8] = system: SN12C renal
# [9] = system: SNB-75 CNS
# [10] = system: UACC-62 melanoma
SMILES,TGI [1],TGI [2],TGI [3],TGI [4],TGI [5],TGI [6],TGI [7],TGI [8],TGI [9],TGI [10],GI50 [1],GI50 [4]
O=C(CCCCCCCCC(=O)N1C(=O)CC(=O)N(c2ccc(Cl)cc2)C1=S)N1C(=O)CC(=O)N(c2ccc(Cl)cc2)C1=S,> 100 µM,> 100 µM,> 100 µM,> 100 µM,> 100 µM,> 100 µM,> 100 µM,> 100 µM,> 100 µM,> 100 µM,,
NCC1OC(OC2C(N)CC(N)C(O)C2OC2OC(CO)C(O)C2O)C(N)C(O)C1O (configuration not stated),> 100 µM,> 100 µM,> 100 µM,> 100 µM,> 50 µM,> 100 µM,> 100 µM,> 100 µM,> 100 µM,> 100 µM,> 100 µM,48 µM and > 100 µM
CCOC(=O)/C=C(/OCC)[C@@H]1C(C(=O)c2ccc(Cl)cc2)[C@@H]1/C(=C\C(=O)OCC)OCC (some centres not stated),27.4 µM,> 100 µM,> 100 µM,> 23.1 µM,> 78.5 µM,> 88.9 µM,> 100 µM,> 100 µM,> 100 µM,> 100 µM,,
CC(C)NC(=O)OCCN=C1c2ccccc2C(Br)C(Br)c2ccccc21 (configuration not stated),18.9 µM,25 µM,33.2 µM,23.1 µM,6.66 µM,42 µM,> 62.9 µM,43.4 µM,39.8 µM,31.1 µM,,
